Data from article PMC11025159 (Journal of Translational Medicine, 2024).
Where “and” joins values, the source holds several entries; their conditions need not be identical. Identical values can stand only once. Counter-ions that a name gives are not always drawn.

What was measured:
[1] = Body weight of athymic nude mice during topical treatment; assay type: in vivo, athymic nude mice (NU/J Foxn1nu); settings: individual mice
Experimental: . The groups are as follows: Group 1-Control (untreated), Group 2-Vehicle control, Group 3-tofacitinib citrate (0.8 mg/Kg), Group 4-tofacitinib citrate (0.08 mg/Kg), Group 5-MJ04 (0.08 mg/Kg), Group 6-MJ04 (0.04 mg/Kg), Group 7-MJ04 (0.016 mg/Kg), Group 8-baricitinib (0.1 mg/Kg), Group 9-baricitinib (0.04 mg/Kg), and Group 10-baricitinib (0.02 mg/Kg). At the end of the experiment, skin samples were collected and preserved in 10% neutral buffered formalin for tissue sectioning and staining using haematoxylin and eosin (H&E). […]

[2] = Body weight, biochemical and haematological parameters in DHT-induced AGA mice (0.5% testosterone then topical treatment); assay type: in vivo, C57BL/6J mice; settings: for LYMPH: unit assumed
Experimental: The experiments were performed on C57BL/6 J and Athymic nude mice (NU/J Foxn1^nu) of 6–7 weeks of age obtained from Animal House Facility, CSIR-Indian Institute of Integrative Medicine (IIIM), Jammu, India. […] The animals were provided with ad libitum feed (standard pellet diet) and autoclaved RO water throughout the study. The body weight of mice was measured after seven days before treatment.
(§1) C57BL/6 J mice (male) were obtained from CSIR-IIIM Animal House at 7 weeks of age. We used a DHT-induced AGA mice model for this study. […] At the end of the experiment, skin samples were collected and preserved in 10% neutral buffered formalin for tissue sectioning and staining using haematoxylin and eosin (H&E). The histopathological examinations were performed under the 10× and 40× objectives of light microscope (Magnus, Mx21i).
Every two weeks during the experimental period, mice were anesthetized, and the blood samples were collected into tubes containing heparin sodium to detect the total and differential white blood cells, haemoglobin, red blood cell, platelet count, mean corpuscular haemoglobin, mean corpuscular volume, red blood cell volume, mean platelet volume, and analyzed using an automated haematology analyzer (Model: XT1800i; Make: Sysmex).
Every two weeks during the experimental period, mice and rats were anesthetized, and blood samples were collected into non-heparinized tubes and then centrifuged at 1000 rpm at 4 °C for 10 min to obtain the serum. The biochemical parameters, including total protein, aspartate aminotransferase, alanine aminotransferase, total protein, albumin, total bilirubin, direct bilirubin, glucose, total cholesterol, triglyceride, low-density lipoprotein, high-density lipoprotein, creatinine, and uric acid, were measured using an automatic biochemical analyzer (Model: EM360; Make: Erba Mannheim).

DHT-induced AGA mice = experiment: Hair regrowth in DHT-induced AGA mice model (topical, 28 days); assay type: in vivo, C57BL/6J mice
Experimental: as §1
Dorsal skin samples from C57BL/6J mice were shaved and collected for histological and molecular analyses on Days 7, 14, 21, and 28. The full-thickness skin tissue was fixed in a 10% neutral buffered formalin solution (Sigma) overnight and subsequently dehydrated for embedding in paraffin. Haematoxylin and eosin (H&E) staining was performed on the skin tissue, and digital photomicrographs were taken from the representative areas using light microscope (Magnus, Mx21i).
The quantification of anagen initiation was assessed by observing changes in the dorsal skin colour of C57BL/6 mice, a phenomenon closely linked to the onset of the anagen phase. Anagen quantification was done by employing threshold analysis on dorsal skin colouration using ImageJ. The darkening of the skin, attributed to melanogenesis, strongly correlates with the progression of anagen. This analysis is visually depicted as a heatmap using GraphPad Prism 9.5 Software.

[3] = test system: athymic nude mice (NU/J Foxn1nu); experiment: Hair growth in athymic nude mice (topical, 28 days); assay type: in vivo; settings: for H&E skin histopathology finding / hair follicle grade: day 28
Experimental: The groups are as follows: Group 1-Control (untreated), Group 2-Vehicle control, Group 3-tofacitinib citrate (0.8 mg/Kg), Group 4-tofacitinib citrate (0.08 mg/Kg), Group 5-MJ04 (0.08 mg/Kg), Group 6-MJ04 (0.04 mg/Kg), Group 7-MJ04 (0.016 mg/Kg), Group 8-baricitinib (0.1 mg/Kg), Group 9-baricitinib (0.04 mg/Kg), and Group 10-baricitinib (0.02 mg/Kg). At the end of the experiment, skin samples were collected and preserved in 10% neutral buffered formalin for tissue sectioning and staining using haematoxylin and eosin (H&E). The histopathological examinations were performed under the 10× and 40× objectives of light microscope (Magnus, Mx21i), and hair follicles were graded on a scale of 0 to 4 (++++).
The skin samples collected from athymic nude mice (NU/J Foxn1^nu) were preserved in 10% neutral buffered formalin and processed for tissue sectioning. The skin sections (10 µm) of nude mice were stained using haematoxylin and eosin (H&E) and viewed under 10× and 40× objectives of the light microscope (Magnus, Mx21i). The histopathological examination of the samples was performed, and the hair follicles in the skin sections were graded on a scale of 0 to 4 (++++).

SMILES: C[C@@H]1CCN(C(=O)CC#N)C[C@@H]1N(C)c1ncnc2[nH]ccc12 [Tofacitinib, tofacitinib citrate, reference compound]
- Weight of nude mice (NU/J Foxn1nu) ([1]; 0.8 mg/kg (first group), DAY 1): 18.1 and 18.4 and 18.7 and 19.3 and 18.2
- Weight of nude mice (NU/J Foxn1nu) ([1]; 0.8 mg/kg (first group), DAY 7): 20.1 and 20.5 (2×) and 19.3 and 19.8
- Weight of nude mice (NU/J Foxn1nu) ([1]; 0.8 mg/kg (first group), DAY 14): 21.8 and 22.3 and 22.4 and 21.1 and 21.4
- Weight of nude mice (NU/J Foxn1nu) ([1]; 0.8 mg/kg (first group), DAY 21): 23.7 and 23.9 and 24.1 and 23.1 and 23.3
- Weight of nude mice (NU/J Foxn1nu) ([1]; 0.8 mg/kg (first group), DAY 28): 24.6 and 25.3 and 25.4 and 26.1 and 24.5
- Weight of nude mice (NU/J Foxn1nu) ([1]; 0.8 mg/kg (second group so printed), DAY 1): 18.4 and 18.5 (2×) and 18.9 and 19.3
- Weight of nude mice (NU/J Foxn1nu) ([1]; 0.8 mg/kg (second group so printed), DAY 7): 19.3 and 19.5 (2×) and 20.6 and 20.7
- Weight of nude mice (NU/J Foxn1nu) ([1]; 0.8 mg/kg (second group so printed), DAY 14): 21.1 and 21.4 and 21.3 and 21.8 and 22.1
- Weight of nude mice (NU/J Foxn1nu) ([1]; 0.8 mg/kg (second group so printed), DAY 21): 22.6 and 22.9 and 23.4 (2×) and 23.8
- Weight of nude mice (NU/J Foxn1nu) ([1]; 0.8 mg/kg (second group so printed), DAY 28): 24.8 and 25.1 and 25.3 and 25.4 and 26.1
- ALP ([2]; Day 21, 0.08 mg/Kg): 198 U/L
- ALT/SGPT ([2]; Day 21, 0.08 mg/Kg): 82 U/L
- AST/SGOT ([2]; Day 21, 0.08 mg/Kg): 80 U/L
- Cholesterol ([2]; Day 21, 0.08 mg/Kg): 216 mg/dL
- Creatine ([2]; Day 21, 0.08 mg/Kg): 0.49 mg/dL
- HCT ([2]; Day 21, 0.08 mg/Kg): 45%
- HDL ([2]; Day 21, 0.08 mg/Kg): 110 mg/dL
- LDL ([2]; Day 21, 0.08 mg/Kg): 134 mg/dL
- MCHC ([2]; Day 21, 0.08 mg/Kg): 28 g/dL
- MCV ([2]; Day 21, 0.08 mg/Kg): 51 fL
- NEUT ([2]; Day 21, 0.08 mg/Kg): 20.2%
- PLT ([2]; Day 21, 0.08 mg/Kg): 587 103/μl
- RBC ([2]; Day 21, 0.08 mg/Kg): 9.2 1012/l
- Total protein ([2]; Day 21, 0.08 mg/Kg): 5.0 g/dL
- Triglyceride ([2]; Day 21, 0.08 mg/Kg): 141 mg/dL
- Urea ([2]; Day 21, 0.08 mg/Kg): 49 mg/dL
- WBC ([2]; Day 21, 0.08 mg/Kg): 3.0 103/μl
- LYMPH ([2]; Day 21, 0.08 mg/Kg): 78.8%
- ALP ([2]; Day 21, 0.8 mg/Kg): 132 U/L
- ALT/SGPT ([2]; Day 21, 0.8 mg/Kg): 56 U/L
- AST/SGOT ([2]; Day 21, 0.8 mg/Kg): 111 U/L
- Cholesterol ([2]; Day 21, 0.8 mg/Kg): 211 mg/dL
- Creatine ([2]; Day 21, 0.8 mg/Kg): 0.63 mg/dL
- HCT ([2]; Day 21, 0.8 mg/Kg): 42%
- HDL ([2]; Day 21, 0.8 mg/Kg): 116 mg/dL
- LDL ([2]; Day 21, 0.8 mg/Kg): 126 mg/dL
- MCHC ([2]; Day 21, 0.8 mg/Kg): 29 g/dL
- MCV ([2]; Day 21, 0.8 mg/Kg): 52 fL
- NEUT ([2]; Day 21, 0.8 mg/Kg): 21.5%
- PLT ([2]; Day 21, 0.8 mg/Kg): 917 103/μl
- RBC ([2]; Day 21, 0.8 mg/Kg): 8.1 1012/l
- Total protein ([2]; Day 21, 0.8 mg/Kg): 5.2 g/dL
- Triglyceride ([2]; Day 21, 0.8 mg/Kg): 118 mg/dL
- Urea ([2]; Day 21, 0.8 mg/Kg): 71 mg/dL
- WBC ([2]; Day 21, 0.8 mg/Kg): 1.7 103/μl
- LYMPH ([2]; Day 21, 0.8 mg/Kg): 77.9%
- ALP ([2]; Day 28, 0.08 mg/Kg): 199 U/L
- ALT/SGPT ([2]; Day 28, 0.08 mg/Kg): 177 U/L
- AST/SGOT ([2]; Day 28, 0.08 mg/Kg): 136 U/L
- Cholesterol ([2]; Day 28, 0.08 mg/Kg): 238 mg/dL
- Creatine ([2]; Day 28, 0.08 mg/Kg): 0.13 mg/dL
- HCT ([2]; Day 28, 0.08 mg/Kg): 47.0%
- HDL ([2]; Day 28, 0.08 mg/Kg): 133 mg/dL
- HGB ([2]; Day 28, 0.08 mg/Kg): 14 g/dL
- LDL ([2]; Day 28, 0.08 mg/Kg): 111 mg/dL
- MCHC ([2]; Day 28, 0.08 mg/Kg): 29.0 g/dL
- MCV ([2]; Day 28, 0.08 mg/Kg): 58.0 fL
- PLT ([2]; Day 28, 0.08 mg/Kg): 1475 103/μl
- RBC ([2]; Day 28, 0.08 mg/Kg): 8.1 106/μl
- Total protein ([2]; Day 28, 0.08 mg/Kg): 6.5 g/dL
- Triglyceride ([2]; Day 28, 0.08 mg/Kg): 135 mg/dL
- Urea ([2]; Day 28, 0.08 mg/Kg): 62 mg/dL
- WBC ([2]; Day 28, 0.08 mg/Kg): 6.7 103/μl
- ALP ([2]; Day 28, 0.8 mg/Kg): 252 U/L
- ALT/SGPT ([2]; Day 28, 0.8 mg/Kg): 134 U/L
- AST/SGOT ([2]; Day 28, 0.8 mg/Kg): 125 U/L
- Cholesterol ([2]; Day 28, 0.8 mg/Kg): 240 mg/dL
- Creatine ([2]; Day 28, 0.8 mg/Kg): 0.12 mg/dL
- HCT ([2]; Day 28, 0.8 mg/Kg): 31.0%
- HDL ([2]; Day 28, 0.8 mg/Kg): 128 mg/dL
- HGB ([2]; Day 28, 0.8 mg/Kg): 11 g/dL
- LDL ([2]; Day 28, 0.8 mg/Kg): 113 mg/dL
- MCHC ([2]; Day 28, 0.8 mg/Kg): 34.0 g/dL
- MCV ([2]; Day 28, 0.8 mg/Kg): 60.0 fL
- PLT ([2]; Day 28, 0.8 mg/Kg): 1053 103/μl
- RBC ([2]; Day 28, 0.8 mg/Kg): 5.1 106/μl
- Total protein ([2]; Day 28, 0.8 mg/Kg): 6.1 g/dL
- Triglyceride ([2]; Day 28, 0.8 mg/Kg): 132 mg/dL
- Urea ([2]; Day 28, 0.8 mg/Kg): 50 mg/dL
- WBC ([2]; Day 28, 0.8 mg/Kg): 5.6 103/μl
- H&E skin histopathology finding (DHT-induced AGA mice; 0.08mg/kg, Days 7, 14, 21, 28): Minimal epidermal thinning with few hair follicles on Days 7 and 14 and increased hair follicles on Days 21 and 28
- hair follicle phase (histopathology) (DHT-induced AGA mice; skin samples days 7, 14, 21, 28): at least in the anagen IIIc-IV phase
- entry into the anagen phase (DHT-induced AGA mice; topical once a day in presence of testosterone): rapid entry into the anagen phase within seven days of treatment
- mice displaying intense skin darkening followed by hair growth (DHT-induced AGA mice; within 10 days of treatment): around 90%
- H&E skin histopathology finding ([3]; 0.08 mg/kg): Mild epidermal thickening with the increased number of hair follicles
- hair follicle grade ([3]; 0.08 mg/kg): ++++ (graded on a scale ranging from 0 to 4 (++++))
- H&E skin histopathology finding ([3]; 0.8 mg/kg): Mild epidermal thickening with the increased number of hair follicles
- hair follicle grade ([3]; 0.8 mg/kg): ++++ (graded on a scale ranging from 0 to 4 (++++))
- early onset of hair ([3]; topical): 12 days
